Measured values taken from patent US20100159496A1, “EVALUATION METHOD FOR PHOTOSYNTHESIS SAMPLE, EVALUATION SYSTEM FOR PHOTOSYNTHESIS SAMPLE, AND EVALUATION PROGRAM FOR PHOTOSYNTHESIS SAMPLE” (HAMAMATSU PHOTONICS K.K., priority 2006, published 2010).

Legend:
Spirulina platensis = experiment: Algae growth inhibition, area under growth curve (OECD Test Guideline 201), S. platensis; format: cell-based; details: 72 hours after exposure, various simazine concentrations (FIG. 9)
Protocol: The area under the growth curve indicates cell growth, which is a conventional evaluation index of chemical substance impact on algae and is computed in compliance to a method for evaluating the impact of a chemical substance on a general algae (OECD Test Guideline 201). That is, the area under the growth curve is the area under the growth curve obtained by culturing 6 mL of an S. platensis cell suspension, adjusted to have an absorbance at 750 nm of 0.03, under a white fluorescent lamp (50 μmol·m−2·s−1) for 72 hours after chemical substance exposure and measuring, every 24 hours, a cell density as the absorbance at 750 nm.

[1] = system: Pseudokircheneriella subcapitata; experiment: Delayed luminescence of P. subcapitata exposed to simazine, fitted by Formula (1); format: cell-based; parameters: key to Computed value E: E computed by Formula (2) from fitted coefficients ai, bi, ci; details: for luminescence amount of delayed luminescence, exposed vs not exposed: 15 minutes after exposure (FIG. 14); for Fitting formula value a1 / Fitting formula value a2 / Fitting formula value a3 / Fitting formula value b1 / Fitting formula value b2 / Fitting formula value b3 / Fitting formula value c1 / Fitting formula value c2 / Fitting formula value c3: 15 minutes after exposure; for Computed value E: Formula (2) from coefficients of Table 2; for Area value (quadrature by parts): third function f3(t), t=0 to 90, Δt 0.1
Protocol: In the present example, the measurement of delayed luminescence was carried out as follows. 2.5 mL of a P. subcapitata cell suspension, adjusted to have an absorbance at 660 nm of 0.2 in a general, 10×10 mm spectrometric cell, was exposed to simazine of any of various concentrations and left to stand for 15 minutes under a white fluorescent lamp of a light amount of 50 μmol·m−2·s−1. Thereafter, inside the measuring device 10, a red light (660 nm) of approximately 300 μmol·m−2·s−1 was illuminated for 10 seconds from the light source 18 as the excitation light for making delayed luminescence be emitted and then the delayed luminescence emitted after extinguishing of the excitation light was recorded for 50 seconds at 0.1 second intervals.
In the present example, the above-described Formula (1) was used for fitting. As examples for description of the fitting results, the measurement result for the “Not exposed” case is shown in FIG. 15A and a graph of the results of fitting to the measurement data are shown in FIG. 15B. In FIG. 15B, f1(t), f2(t), and f3(t) are respectively the first function, the second function, and the third function in Formula (1). From FIG. 15, it can be understood that the delayed luminescence measurement data can be fitted by a plurality of hill-shaped function.
By the fitting, the function coefficients, ai, bi, and ci (i=1, 2, 3) are determined.
As another example of the evaluating step, a case of evaluating by an evaluation value computed based on a computation formula shall be described. As the evaluation value, an evaluation value E is computed from the determined coefficient values ai, bi, and ci (i=1, 2, 3) and based on Formula (2) described above. Here, the constants mj (j=1 to 9) are set, for example, so that m1=1/a3, m2=1, m3=1, m4=1/a2, m5=1/b2, m6=1/c2, m7=1, m8=1/a1, m9=1/c1. As the constants mj, those that are appropriate according to the measurement conditions and algae species can be set. If instead of using all of the coefficient values, only a portion is to be used as described above, a reciprocal of a coefficient value, such as 1/a3, is set to the corresponding mj (j=1 to 9) for each coefficient value to be ignored.
As another example of the evaluating step, a case of evaluating by an area value computed based on the coefficient values of a function shall be described. As mentioned above, the area value is the value of the area of a region surrounded by the curve indicating the function value in the function graph and the time axis line positioned below the curve indicating the function value. The area value of a function is deeply related to the luminescence amount of the photon component expressed by the function. In the present example, based on the coefficient values obtained from the results of exposing simazine to P. subcapitata shown in Table 2, area values were determined for the third function f3(t) in Formula (1) in a range of t=0 to 90 by quadrature by parts with at interval Δt being set equal to 0.1.

[2] = simazine exposure concentration 5 μg/L
[3] = simazine exposure concentration 25 μg/L
[4] = simazine exposure concentration 50 μg/L
[5] = simazine exposure concentration 100 μg/L

In the case of CCNc1nc(Cl)nc(NCC)n1 [Simazine, simazine], the “cell growth (area under the growth curve)” value (Spirulina platensis) is reported as “inhibited according to the exposure concentration of simazine”, the “variation of evaluation value c3 with simazine exposure concentration” value ([1]; P. subcapitata (FIG. 16)) is reported as “decreases in accordance with the simazine exposure concentration” and the “variation of computed value E with simazine exposure concentration” value ([1]; P. subcapitata (FIG. 17)) is reported as “decreases in accordance with the simazine exposure concentration”. The “variation of area value with simazine exposure concentration” value ([1]; P. subcapitata (FIG. 18)) was “decreases in accordance with the simazine exposure concentration”, the “luminescence amount of delayed luminescence, exposed vs not exposed” value ([1]; early time period (near 0 seconds) of time after excitation) was “increases” and the “luminescence amount of delayed luminescence, exposed vs not exposed” value ([1]; later time period (5 seconds onward) after excitation) was “decreases”. For the same compound, the “Fitting formula value a1” value [1, 2] was 0.05, the “Fitting formula value a2” value [1, 2] was 0.0037 and the “Fitting formula value a3” value [1, 2] was 0.0005. The “Fitting formula value b1” value [1, 2] was −0.5, the “Fitting formula value b2” value [1, 2] was −0.5 and the “Fitting formula value b3” value [1, 2] was 6. For the same compound, the “Fitting formula value c1” value [1, 2] was 5.2, the “Fitting formula value c2” value [1, 2] was 4.15 and the “Fitting formula value c3” value [1, 2] was 3. The “Computed value E” value [1, 2] was 360, the “Area value (quadrature by parts)” value [1, 2] was 24112.1 and the “Fitting formula value a1” value [1, 3] was 0.05. The “Fitting formula value a2” value [1, 3] was 0.0035, the “Fitting formula value a3” value [1, 3] was 0.0004 and the “Fitting formula value b1” value [1, 3] was −0.5. The “Fitting formula value b2” value [1, 3] was −0.5, the “Fitting formula value b3” value [1, 3] was 5 and the “Fitting formula value c1” value [1, 3] was 5.2. For the same compound, the “Fitting formula value c2” value [1, 3] was 4.1, the “Fitting formula value c3” value [1, 3] was 2.9 and the “Computed value E” value [1, 3] was 290. For the same compound, the “Area value (quadrature by parts)” value [1, 3] was 19665.7, the “Fitting formula value a1” value [1, 4] was 0.08 and the “Fitting formula value a2” value [1, 4] was 0.0044. For the same compound, the “Fitting formula value a3” value [1, 4] was 0.0005, the “Fitting formula value b1” value [1, 4] was −0.5 and the “Fitting formula value b2” value [1, 4] was −0.5. For the same compound, the “Fitting formula value b3” value [1, 4] was 3, the “Fitting formula value c1” value [1, 4] was 5.4 and the “Fitting formula value c2” value [1, 4] was 4.1. The “Fitting formula value c3” value [1, 4] was 2.9, the “Computed value E” value [1, 4] was 108.75 and the “Area value (quadrature by parts)” value [1, 4] was 16520.1. The “Fitting formula value a1” value [1, 5] was 0.1, the “Fitting formula value a2” value [1, 5] was 0.005 and the “Fitting formula value a3” value [1, 5] was 0.005. For the same compound, the “Fitting formula value b1” value [1, 5] was −0.5, the “Fitting formula value b2” value [1, 5] was −0.5 and the “Fitting formula value b3” value [1, 5] was 3. For the same compound, the “Fitting formula value c1” value [1, 5] was 5.6, the “Fitting formula value c2” value [1, 5] was 4.1 and the “Fitting formula value c3” value [1, 5] was 2.7. The “Computed value E” value [1, 5] was 81 and the “Area value (quadrature by parts)” value [1, 5] was 4435.7.
